The NIST ThermoML archive (doi:10.1016/j.fluid.2007.04.030)

Test: xn = mol fraction of the nth substance listed
Conditions: 101 kPa, Liquid

COc1cc2c(cc1O)CC1c3c(cc(O)c(OC)c3-2)CCN1C (configuration not stated) [boldine] + CC(C)O
mass density [kg/m3]
Conditions | x1 = 0.00187 | x1 = 0.00371 | x1 = 0.00563 | x1 = 0.00735 | x1 = 0.00957 | x1 = 0.01158 | x1 = 0.01364
283.15 K | 796.84 | 800.29 | 803.77 | 807.03 | 810.42 | 814.44 | 818.2
288.15 K | 792.75 | 796.21 | 799.68 | 802.94 | 806.37 | 810.34 | 814.09
293.15 K | 788.61 | 792.06 | 795.53 | 798.79 | 802.25 | 806.19 | 809.91
298.15 K | 784.39 | 787.84 | 791.32 | 794.57 | 798.05 | 801.97 | 805.66
303.15 K | 780.11 | 783.56 | 787.04 | 790.29 | 793.78 | 797.69 | 801.36
308.15 K | 775.77 | 779.22 | 782.69 | 785.94 | 789.45 | 793.35 | 797.01
313.15 K | 771.34 | 774.79 | 778.25 | 781.51 | 785.03 | 788.91 | 792.59
318.15 K | 766.8 | 770.26 | 773.72 | 776.98 | 780.51 | 784.38 | 788.09
323.15 K | 762.17 | 765.62 | 769.08 | 772.35 | 775.88 | 779.76 | 783.56
328.15 K | 757.42 | 760.87 | 764.34 | 767.61 | 771.14 | 775.02 | 778.85
333.15 K | 752.55 | 756.01 | 759.48 | 762.75 | 766.27 | 770.17 | 773.99
